We go through 3 molecules from PMC6437697 (Journal of Medicinal Chemistry, 2019).

Holding throughout (assay): KINOMEscan
What all share (format): binding
Holding throughout (conditions): read-out: % control activity remaining

The target of one assay is T1, CDK11 (Homo sapiens, UniProt Q9BWU1).
T1 construct: purchased Eurofins DiscoverX KINOMEscan

The target of another assay is T2, MLK2 (Homo sapiens, UniProt Q02779).
T2 construct: purchased Eurofins DiscoverX KINOMEscan

Another assay concerns the target T3, LYN (Homo sapiens, UniProt P07948).
T3 construct: purchased Eurofins DiscoverX KINOMEscan

Another assay concerns the target T4, LIMK1 (Homo sapiens, UniProt P53667).
T4 construct: purchased Eurofins DiscoverX KINOMEscan

The target of a further assay is T5, PKN1 (Homo sapiens, UniProt Q16512).
T5 construct: purchased Eurofins DiscoverX KINOMEscan

For another assay, the target named is T6, YANK3 (Homo sapiens, UniProt Q86UX6).
T6 construct: purchased Eurofins DiscoverX KINOMEscan

Another assay has as its target T7, TLK1 (Homo sapiens, UniProt Q9UKI8).
T7 construct: purchased Eurofins DiscoverX KINOMEscan
T7 sequence (Q9UKI8 1-766): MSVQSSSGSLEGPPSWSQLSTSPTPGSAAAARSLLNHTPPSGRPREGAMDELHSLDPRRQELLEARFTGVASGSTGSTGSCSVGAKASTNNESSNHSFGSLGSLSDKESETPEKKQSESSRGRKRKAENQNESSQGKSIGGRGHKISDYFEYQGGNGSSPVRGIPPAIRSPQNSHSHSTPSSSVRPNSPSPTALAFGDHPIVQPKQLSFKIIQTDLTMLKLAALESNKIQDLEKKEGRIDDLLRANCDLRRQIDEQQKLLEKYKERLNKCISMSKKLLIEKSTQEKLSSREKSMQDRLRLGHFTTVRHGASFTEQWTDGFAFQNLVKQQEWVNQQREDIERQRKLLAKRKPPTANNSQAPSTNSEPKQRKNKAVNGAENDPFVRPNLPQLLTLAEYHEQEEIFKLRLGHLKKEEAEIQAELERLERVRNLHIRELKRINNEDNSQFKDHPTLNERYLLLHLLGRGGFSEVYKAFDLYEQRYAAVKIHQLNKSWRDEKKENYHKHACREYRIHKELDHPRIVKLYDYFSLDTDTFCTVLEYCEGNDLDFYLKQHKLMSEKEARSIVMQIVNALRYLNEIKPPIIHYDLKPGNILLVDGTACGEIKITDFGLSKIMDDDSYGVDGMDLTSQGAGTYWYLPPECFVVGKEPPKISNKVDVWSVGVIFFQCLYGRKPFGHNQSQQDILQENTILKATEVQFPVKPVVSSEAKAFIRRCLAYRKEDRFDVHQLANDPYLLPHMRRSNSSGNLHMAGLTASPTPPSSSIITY

In a further assay the target is T8, PRKCI (Homo sapiens, UniProt P41743).
T8 construct: purchased Eurofins DiscoverX KINOMEscan
T8 sequence (P41743 1-596): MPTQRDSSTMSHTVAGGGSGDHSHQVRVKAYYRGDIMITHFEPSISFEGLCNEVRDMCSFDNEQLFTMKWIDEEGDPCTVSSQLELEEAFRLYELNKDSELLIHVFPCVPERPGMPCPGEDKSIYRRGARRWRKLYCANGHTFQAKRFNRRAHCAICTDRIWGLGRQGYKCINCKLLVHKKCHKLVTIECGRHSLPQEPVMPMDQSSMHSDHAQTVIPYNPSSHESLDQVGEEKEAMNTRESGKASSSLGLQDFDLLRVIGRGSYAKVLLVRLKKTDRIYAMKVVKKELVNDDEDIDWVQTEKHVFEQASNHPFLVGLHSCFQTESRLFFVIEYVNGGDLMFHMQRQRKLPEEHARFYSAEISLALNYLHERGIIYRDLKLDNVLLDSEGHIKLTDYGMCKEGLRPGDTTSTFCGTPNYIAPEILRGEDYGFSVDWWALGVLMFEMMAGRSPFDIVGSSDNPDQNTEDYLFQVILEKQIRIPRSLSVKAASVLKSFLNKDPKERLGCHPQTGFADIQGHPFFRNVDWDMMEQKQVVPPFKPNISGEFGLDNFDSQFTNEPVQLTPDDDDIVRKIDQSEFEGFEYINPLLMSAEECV

A further assay has as its target T9, GSK3A (Homo sapiens, UniProt P49840).
T9 construct: purchased Eurofins DiscoverX KINOMEscan

In another assay the target is T10, KIT(V559D,T670I) (Homo sapiens, UniProt P10721, T670I/V559D).
T10 construct: purchased Eurofins DiscoverX KINOMEscan
T10 sequence (P10721 26-976 V559D/T670I): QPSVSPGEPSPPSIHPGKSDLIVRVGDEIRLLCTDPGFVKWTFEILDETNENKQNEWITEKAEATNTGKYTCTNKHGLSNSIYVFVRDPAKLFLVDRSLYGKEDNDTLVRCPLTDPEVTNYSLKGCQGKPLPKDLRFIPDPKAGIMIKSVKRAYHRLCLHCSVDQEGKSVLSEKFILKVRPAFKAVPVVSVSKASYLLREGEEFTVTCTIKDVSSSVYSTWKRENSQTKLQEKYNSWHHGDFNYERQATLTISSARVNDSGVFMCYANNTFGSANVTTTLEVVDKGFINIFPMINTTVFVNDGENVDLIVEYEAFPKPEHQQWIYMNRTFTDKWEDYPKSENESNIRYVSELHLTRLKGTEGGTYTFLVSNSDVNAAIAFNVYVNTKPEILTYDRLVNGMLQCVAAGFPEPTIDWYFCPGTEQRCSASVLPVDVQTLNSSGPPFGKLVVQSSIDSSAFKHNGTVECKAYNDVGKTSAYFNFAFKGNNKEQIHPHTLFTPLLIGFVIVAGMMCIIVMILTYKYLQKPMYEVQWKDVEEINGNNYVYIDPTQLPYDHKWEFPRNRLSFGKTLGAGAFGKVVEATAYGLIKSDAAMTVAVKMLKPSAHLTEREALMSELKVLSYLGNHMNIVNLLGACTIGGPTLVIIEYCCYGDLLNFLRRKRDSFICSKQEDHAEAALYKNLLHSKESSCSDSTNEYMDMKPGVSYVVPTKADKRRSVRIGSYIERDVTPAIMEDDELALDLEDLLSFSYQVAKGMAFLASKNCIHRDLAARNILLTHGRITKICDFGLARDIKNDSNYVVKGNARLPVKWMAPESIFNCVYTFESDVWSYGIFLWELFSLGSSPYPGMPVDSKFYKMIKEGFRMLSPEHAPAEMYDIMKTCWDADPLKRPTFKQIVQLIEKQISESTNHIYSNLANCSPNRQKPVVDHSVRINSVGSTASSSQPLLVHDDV

For the next assay, the target named is T11, WEE1 (Homo sapiens, UniProt P30291).
T11 construct: purchased Eurofins DiscoverX KINOMEscan

In another assay the target is T12, TIE2 (Homo sapiens, UniProt Q02763).
T12 construct: purchased Eurofins DiscoverX KINOMEscan

A further assay has as its target T13, BRAF (Homo sapiens, UniProt P15056).
T13 construct: purchased Eurofins DiscoverX KINOMEscan

For another assay, the target named is T14, SNARK (Homo sapiens, UniProt Q9H093).
T14 construct: purchased Eurofins DiscoverX KINOMEscan
T14 sequence (Q9H093 1-628): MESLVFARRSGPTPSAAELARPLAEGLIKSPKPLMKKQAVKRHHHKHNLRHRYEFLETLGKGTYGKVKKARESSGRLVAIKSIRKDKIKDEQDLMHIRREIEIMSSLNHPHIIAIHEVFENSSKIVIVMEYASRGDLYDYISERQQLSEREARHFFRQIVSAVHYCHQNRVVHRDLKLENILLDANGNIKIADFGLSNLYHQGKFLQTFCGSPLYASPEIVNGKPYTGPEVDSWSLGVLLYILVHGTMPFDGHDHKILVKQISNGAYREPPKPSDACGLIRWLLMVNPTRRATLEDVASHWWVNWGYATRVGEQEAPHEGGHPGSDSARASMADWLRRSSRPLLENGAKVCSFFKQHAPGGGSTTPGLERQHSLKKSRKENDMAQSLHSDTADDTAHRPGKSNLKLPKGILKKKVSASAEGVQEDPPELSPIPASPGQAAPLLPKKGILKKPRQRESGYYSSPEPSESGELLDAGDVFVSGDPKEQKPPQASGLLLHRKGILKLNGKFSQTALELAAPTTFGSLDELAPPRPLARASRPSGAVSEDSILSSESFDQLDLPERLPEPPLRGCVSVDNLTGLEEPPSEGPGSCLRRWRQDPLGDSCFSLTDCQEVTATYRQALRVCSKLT

For another assay, the target named is T15, ZAK (Homo sapiens, UniProt Q9NYL2).
T15 construct: purchased Eurofins DiscoverX KINOMEscan

The target in the next assay is T16, SRC (Homo sapiens, UniProt P12931).
T16 construct: purchased Eurofins DiscoverX KINOMEscan

For the next assay, the target named is T17, HPK1 (Homo sapiens, UniProt Q92918).
T17 construct: purchased Eurofins DiscoverX KINOMEscan
T17 sequence (Q92918 whole entry): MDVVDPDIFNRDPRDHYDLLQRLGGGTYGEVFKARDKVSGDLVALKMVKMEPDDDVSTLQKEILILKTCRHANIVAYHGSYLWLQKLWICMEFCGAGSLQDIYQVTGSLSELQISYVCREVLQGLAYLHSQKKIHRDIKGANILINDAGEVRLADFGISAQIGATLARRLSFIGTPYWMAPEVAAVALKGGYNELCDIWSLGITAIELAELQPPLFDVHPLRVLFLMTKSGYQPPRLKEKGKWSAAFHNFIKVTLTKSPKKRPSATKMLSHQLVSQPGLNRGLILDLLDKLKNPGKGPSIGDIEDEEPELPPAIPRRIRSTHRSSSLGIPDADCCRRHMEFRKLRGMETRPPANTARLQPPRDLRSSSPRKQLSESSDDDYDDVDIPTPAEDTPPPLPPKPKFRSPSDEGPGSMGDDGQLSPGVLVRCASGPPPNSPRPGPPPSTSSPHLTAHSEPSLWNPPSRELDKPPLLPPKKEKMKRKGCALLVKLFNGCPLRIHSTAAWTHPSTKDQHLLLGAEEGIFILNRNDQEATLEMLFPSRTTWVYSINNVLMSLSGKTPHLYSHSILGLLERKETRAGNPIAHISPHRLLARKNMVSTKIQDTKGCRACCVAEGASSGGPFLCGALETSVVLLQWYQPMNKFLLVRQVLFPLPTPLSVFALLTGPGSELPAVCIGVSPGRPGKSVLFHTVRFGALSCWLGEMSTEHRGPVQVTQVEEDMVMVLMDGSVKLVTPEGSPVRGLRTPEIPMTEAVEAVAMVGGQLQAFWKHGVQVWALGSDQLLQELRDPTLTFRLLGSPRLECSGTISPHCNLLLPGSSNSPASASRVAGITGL

The target of a further assay is T18, ACVR2B (Homo sapiens, UniProt Q13705).
T18 construct: purchased Eurofins DiscoverX KINOMEscan
T18 sequence (Q13705 19-512): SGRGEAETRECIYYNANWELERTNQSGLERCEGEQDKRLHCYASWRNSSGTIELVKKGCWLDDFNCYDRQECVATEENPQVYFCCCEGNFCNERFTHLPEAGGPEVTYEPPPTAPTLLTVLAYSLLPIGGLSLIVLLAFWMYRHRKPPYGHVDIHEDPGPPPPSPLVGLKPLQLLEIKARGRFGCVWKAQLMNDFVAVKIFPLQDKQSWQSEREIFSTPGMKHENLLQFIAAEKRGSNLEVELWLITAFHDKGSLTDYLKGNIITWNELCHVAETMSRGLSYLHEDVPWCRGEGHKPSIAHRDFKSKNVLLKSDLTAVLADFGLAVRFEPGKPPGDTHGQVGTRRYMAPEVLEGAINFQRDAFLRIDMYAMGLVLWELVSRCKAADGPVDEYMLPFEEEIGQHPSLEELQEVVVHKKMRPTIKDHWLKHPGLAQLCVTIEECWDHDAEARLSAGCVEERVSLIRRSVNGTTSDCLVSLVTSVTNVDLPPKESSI

T4 sequence (P53667 whole entry): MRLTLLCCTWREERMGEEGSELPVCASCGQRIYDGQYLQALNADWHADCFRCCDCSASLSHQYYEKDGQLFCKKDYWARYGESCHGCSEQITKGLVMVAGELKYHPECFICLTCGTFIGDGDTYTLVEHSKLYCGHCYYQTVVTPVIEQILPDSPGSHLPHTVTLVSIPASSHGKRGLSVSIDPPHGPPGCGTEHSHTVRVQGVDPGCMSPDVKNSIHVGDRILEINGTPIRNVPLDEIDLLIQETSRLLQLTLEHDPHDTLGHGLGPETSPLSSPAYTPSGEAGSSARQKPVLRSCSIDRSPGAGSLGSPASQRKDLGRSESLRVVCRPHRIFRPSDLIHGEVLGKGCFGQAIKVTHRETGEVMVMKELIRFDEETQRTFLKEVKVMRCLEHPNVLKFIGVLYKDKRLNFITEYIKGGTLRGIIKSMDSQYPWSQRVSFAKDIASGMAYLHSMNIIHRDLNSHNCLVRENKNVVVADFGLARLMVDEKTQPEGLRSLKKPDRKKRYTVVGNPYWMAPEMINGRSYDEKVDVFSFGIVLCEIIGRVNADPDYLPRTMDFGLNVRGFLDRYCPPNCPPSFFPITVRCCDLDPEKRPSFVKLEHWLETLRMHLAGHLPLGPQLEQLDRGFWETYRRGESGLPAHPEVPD
T3 sequence (P07948 whole entry): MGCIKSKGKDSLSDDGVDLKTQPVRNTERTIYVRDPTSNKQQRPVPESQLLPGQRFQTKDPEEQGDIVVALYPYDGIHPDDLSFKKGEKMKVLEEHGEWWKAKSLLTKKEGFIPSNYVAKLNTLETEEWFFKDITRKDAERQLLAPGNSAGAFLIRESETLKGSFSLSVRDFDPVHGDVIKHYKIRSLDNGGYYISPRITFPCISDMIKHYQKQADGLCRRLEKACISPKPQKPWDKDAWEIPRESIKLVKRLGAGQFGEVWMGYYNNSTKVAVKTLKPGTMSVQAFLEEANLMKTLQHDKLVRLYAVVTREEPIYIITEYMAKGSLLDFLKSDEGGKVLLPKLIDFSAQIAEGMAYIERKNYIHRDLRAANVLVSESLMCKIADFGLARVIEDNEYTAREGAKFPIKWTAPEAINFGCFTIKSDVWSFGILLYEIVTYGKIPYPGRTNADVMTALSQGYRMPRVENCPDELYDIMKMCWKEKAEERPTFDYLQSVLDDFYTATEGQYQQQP
T1 sequence (Q9BWU1 whole entry): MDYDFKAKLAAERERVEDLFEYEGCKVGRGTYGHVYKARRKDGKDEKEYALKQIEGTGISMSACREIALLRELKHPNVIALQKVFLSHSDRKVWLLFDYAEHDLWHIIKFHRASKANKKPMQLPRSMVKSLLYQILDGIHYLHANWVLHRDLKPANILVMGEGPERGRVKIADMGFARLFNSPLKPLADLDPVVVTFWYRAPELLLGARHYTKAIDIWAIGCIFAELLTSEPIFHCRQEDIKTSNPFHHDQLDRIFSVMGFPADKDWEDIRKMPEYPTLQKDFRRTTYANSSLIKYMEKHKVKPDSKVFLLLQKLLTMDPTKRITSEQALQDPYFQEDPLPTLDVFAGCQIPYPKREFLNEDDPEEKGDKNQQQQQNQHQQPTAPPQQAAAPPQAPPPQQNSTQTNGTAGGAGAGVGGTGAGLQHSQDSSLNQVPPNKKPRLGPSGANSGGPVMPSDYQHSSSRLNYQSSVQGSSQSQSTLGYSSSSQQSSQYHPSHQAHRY
T2 sequence (Q02779 whole entry): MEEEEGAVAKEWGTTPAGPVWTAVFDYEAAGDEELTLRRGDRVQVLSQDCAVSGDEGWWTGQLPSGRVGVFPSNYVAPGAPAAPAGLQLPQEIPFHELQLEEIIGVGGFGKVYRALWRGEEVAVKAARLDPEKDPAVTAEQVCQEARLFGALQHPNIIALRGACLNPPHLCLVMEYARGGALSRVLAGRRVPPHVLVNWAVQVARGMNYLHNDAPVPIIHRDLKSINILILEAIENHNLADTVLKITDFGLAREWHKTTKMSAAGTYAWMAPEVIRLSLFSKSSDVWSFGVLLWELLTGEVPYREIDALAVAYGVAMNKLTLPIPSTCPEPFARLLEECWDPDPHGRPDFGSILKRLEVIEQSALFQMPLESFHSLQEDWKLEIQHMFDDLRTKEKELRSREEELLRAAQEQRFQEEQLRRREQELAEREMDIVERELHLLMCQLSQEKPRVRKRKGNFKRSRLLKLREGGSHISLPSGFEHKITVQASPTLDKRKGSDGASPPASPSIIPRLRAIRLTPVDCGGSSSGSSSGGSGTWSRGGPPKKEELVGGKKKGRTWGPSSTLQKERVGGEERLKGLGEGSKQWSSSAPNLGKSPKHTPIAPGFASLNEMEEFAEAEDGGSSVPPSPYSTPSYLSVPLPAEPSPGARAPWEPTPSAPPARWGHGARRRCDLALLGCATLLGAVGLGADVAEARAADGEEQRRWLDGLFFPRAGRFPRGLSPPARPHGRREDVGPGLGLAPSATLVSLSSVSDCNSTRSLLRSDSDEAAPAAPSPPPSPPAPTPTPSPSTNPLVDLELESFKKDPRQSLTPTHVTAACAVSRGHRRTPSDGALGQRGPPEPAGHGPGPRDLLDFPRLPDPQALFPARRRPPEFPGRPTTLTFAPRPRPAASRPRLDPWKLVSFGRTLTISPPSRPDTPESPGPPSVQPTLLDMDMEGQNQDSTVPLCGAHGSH

For the molecule `Clc1cc(NCC2CC2)c2ncc(-c3ccc4[nH]ncc4c3)n2n1` [compound 2, 6-Chloro-N-(cyclopropylmethyl)-3-(1H-indazol-5-yl)imidazo[1,2-b]pyridazin-8-amine], the remaining binding at 1 µM is 97% on CDK11; 100% at MLK2; 92% at LYN; 100% at LIMK1; 100% on PKN1; 100% at YANK3. The remaining binding at 1 µM amounted to 96% on TLK1; 88% at PRKCI; 93% at GSK3A; 20% on KIT(V559D,T670I); 100% at WEE1; 78% on TIE2. The remaining binding at 1 µM at BRAF is 98%; at SNARK it was 99%; on ZAK it was 86%; on SRC, 100%; at HPK1, 75%; at ACVR2B, 100%.
For `O=C(CN1CCOCC1)N[C@H]1CC[C@H](Nc2cc(Cl)nn3c(-c4ccc5[nH]ncc5c4)cnc23)CC1` [compound 26], the remaining binding at 1 µM on CDK11 turned out to be 98%; at MLK2 it was 92%; at LYN it was 96%; at LIMK1, 97%; at PKN1 it was 71%; on YANK3, 99%. In addition, the remaining binding at 1 µM at TLK1 is 87%; on PRKCI, 100%; on GSK3A it was 100%; on KIT(V559D,T670I) it was 0.85%; at WEE1, 100%; on TIE2 it was 89%. The remaining binding at 1 µM on BRAF was found to be 98%; at SNARK, 73%; at ZAK, 87%; on SRC, 100%; at HPK1, 88%; at ACVR2B it was 99%.
As to `CN1CCC(CNc2cc(Cl)nn3c(-c4cc5nc(Nc6ccccc6)[nH]c5cc4F)cnc23)CC1` [compound 31, 6-Chloro-3-(6-fluoro-2-(phenylamino)-1H-benzo[d]imidazol-5-yl)-N-((1-methylpiperidin-4-yl)methyl)imidazo[1,2-b]pyridazin-8-amine], the remaining binding at 1 µM on CDK11 amounted to 91%; at MLK2 it was 88%; on LYN it was 95%; at LIMK1, 98%; on PKN1, 91%; on YANK3, 73%. Also, the remaining binding at 1 µM on TLK1 was determined as 93%; at PRKCI it was 89%; on GSK3A, 84%; on KIT(V559D,T670I), 97%; on WEE1 it was 100%; at TIE2, 91%. For the same molecule, the remaining binding at 1 µM on BRAF is 96%; on SNARK, 88%; at ZAK it was 93%; on SRC, 100%; on HPK1, 97%; at ACVR2B it was 100%.
